Data published in patent US8815881B2 (Hoffmann-La Roche Inc., priority 2010, dated 2014).

The compounds below were run against endogenous cellular BACE2 in the Ins1e rat cell line (Rattus norvegicus (Rat), UniProt Q6IE75) (assay: Assay for BACE inhibition by measuring cellular TMEM27 cleavage (ELISA of shed hTMEM27 from INS-TMEM27 cells)). Conditions: assay a): cellular TMEM27 cleavage, INS-TMEM27 cells (superscript a).
Format: cell-based
Description: a) Assay for BACE Inhibition by Measuring Cellular TMEM27 Cleavage:
The assay uses the principle of inhibition of human TMEM27 cleavage by endogenous cellular BACE2 in the Ins1e rat cell line and shedding from the cell surface into the culture medium, followed by detection in an ELISA assay. Inhibition of BACE2 prevents the cleavage and shedding in a dose-dependent manner.
The stable cell line “INS-TMEM27” represents an INS1e-derived cell line with inducible expression (using the TetOn system) of full-length hTMEM27 in a doxycycline-dependent manner. The cells are cultured throughout the experiment in RPMI1640+Glutamax (Invitrogen) Penicillin/Streptomycin, 10% Fetal bovine serum, […], […], 100 micrograms/ml G418 and 100 microgram/ml hygromycin and are grown inadherent culture at 37° C. in a standard CO2 cell culture incubator.
INS-TMEM27 cells are seeded in 96-well plates. After 2 days in culture, BACE2 inhibitor is added in a range of concentrations as required by the assay and after a further two hours, doxycycline is added to a final concentration of 500 ng/ml. The cells are incubated for a further 46 hours and the supernatant harvested for detection of shed TMEM27.
An ELISA assay (using a pair of mouse anti-human-TMEM27 antibodies, raised against the extracellular domain of TMEM27) is used for detection of TMEM27 in the culture medium. An EC50 for BACE2 inhibition is calculated using the ELISA readout for each inhibitor concentration with standard curve-fitting software such as XLFit for the Excel spreadsheet program.

endogenous cellular BACE2 in the Ins1e rat cell line, sequence (Q6IE75 63-514): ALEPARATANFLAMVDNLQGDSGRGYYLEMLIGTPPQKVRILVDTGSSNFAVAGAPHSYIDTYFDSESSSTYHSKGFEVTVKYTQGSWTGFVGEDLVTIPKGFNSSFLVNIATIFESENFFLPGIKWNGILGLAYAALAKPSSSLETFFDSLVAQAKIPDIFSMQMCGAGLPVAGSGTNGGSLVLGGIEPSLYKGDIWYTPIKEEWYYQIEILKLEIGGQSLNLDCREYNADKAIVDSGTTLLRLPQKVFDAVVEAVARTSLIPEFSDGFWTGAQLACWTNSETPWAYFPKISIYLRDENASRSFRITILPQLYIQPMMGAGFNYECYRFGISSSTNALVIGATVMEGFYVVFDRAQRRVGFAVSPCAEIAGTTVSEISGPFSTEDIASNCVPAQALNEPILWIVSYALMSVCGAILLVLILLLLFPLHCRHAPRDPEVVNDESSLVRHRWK

How did the IC50 turn out when `CN1C(=O)C(C)(C)[C@@](C)(c2cccc(NC(=O)C3(C#N)CC3)c2)N=C1N` [Example 1, 1-Cyano-cyclopropanecarboxylic acid [3-((R)-2-amino-1,4,5,5-tetramethyl-6-oxo-1,4,5,6-tetrahydro-pyrimidin-4-yl)-phenyl]-amide] was run?
Its IC50 is 57 nM.

Which IC50 does the source give for `CN1C(=O)C(C)(C)[C@@](C)(c2cccc(NC(=O)C3(C(F)(F)F)CC3)c2)N=C1N` [Example 2, 1-Trifluoromethyl-cyclopropanecarboxylic acid [3-((R)-2-amino-1,4,5,5-tetramethyl-6-oxo-1,4,5,6-tetrahydro-pyrimidin-4-yl)-phenyl]-amide] here?
Its IC50 is 82 nM.

For `CN1C(=O)C(C)(C)[C@@](C)(c2cc(NC(=O)CC(F)(F)F)ccc2F)N=C1N` [Example 3, N-[3-((S)-2-Amino-1,4,5,5-tetramethyl-6-oxo-1,4,5,6-tetrahydro-pyrimidin-4-yl)-4-fluoro-phenyl]-3,3,3-trifluoro-propionamide], which IC50 is on record?
The IC50 was 11 nM.

`CN1C(=O)C(C)(C)[C@@](C)(c2cc(NC(=O)C3(C(F)(F)F)CCC3)ccc2F)N=C1N` [Example 4, 1-Trifluoromethyl-cyclobutanecarboxylic acid [3-((S)-2-amino-1,4,5,5-tetramethyl-6-oxo-1,4,5,6-tetrahydro-pyrimidin-4-yl)-4-fluoro-phenyl]-amide] was tested. Which IC50 did it give?
Its IC50 is 85 nM.

Which IC50 does the source give for `CN1C(=O)C(C)(C)[C@@](C)(c2cc(NC(=O)C3(C(F)(F)F)CC3)ccc2F)N=C1N` [Example 5, 1-Trifluoromethyl-cyclopropanecarboxylic acid [3-((S)-2-amino-1,4,5,5-tetramethyl-6-oxo-1,4,5,6-tetrahydro-pyrimidin-4-yl)-4-fluoro-phenyl]-amide] here?
The IC50 was 11 nM.

Which IC50 does the source give for `CN1C(=O)C(C)(C)[C@@](C)(c2cc(NC(=O)C(F)(F)C(F)(F)F)ccc2F)N=C1N` [Example 6, N-[3-((S)-2-Amino-1,4,5,5-tetramethyl-6-oxo-1,4,5,6-tetrahydro-pyrimidin-4-yl)-4-fluoro-phenyl]-2,2,3,3,3-pentafluoro-propionamide] here?
Its IC50 is 350 nM.

`CN1C(=O)C(C)(C)[C@@](C)(c2cc(NC(=O)C(C(F)(F)F)C(F)(F)F)ccc2F)N=C1N` [Example 7, N-[3-((S)-2-Amino-1,4,5,5-tetramethyl-6-oxo-1,4,5,6-tetrahydro-pyrimidin-4-yl)-4-fluoro-phenyl]-3,3,3-trifluoro-2-trifluoromethyl-propionamide] was tested. Which IC50 did it give?
Its IC50 is 1010 nM.

For `CN1C(=O)C(C)(C)[C@@](C)(c2cc(NC(=O)C(O)C(F)(F)F)ccc2F)N=C1N` (stereo partly drawn) [Example 8, N-[3-((S)-2-Amino-1,4,5,5-tetramethyl-6-oxo-1,4,5,6-tetrahydro-pyrimidin-4-yl)-4-fluoro-phenyl]-3,3,3-trifluoro-2-hydroxy-propionamide], which IC50 is on record?
Its IC50 is 9 nM.

For `CN1C(=O)C(C)(C)[C@@](C)(c2cc(NC(=O)[C@H]3CC3(F)F)ccc2F)N=C1N` [Example 9, (R)-2,2-Difluoro-cyclopropanecarboxylic acid [3-((S)-2-amino-1,4,5,5-tetramethyl-6-oxo-1,4,5,6-tetrahydro-pyrimidin-4-yl)-4-fluoro-phenyl]-amide], which IC50 is on record?
The IC50 was 25 nM.

`CN1C(=O)C(C)(C)[C@@](C)(c2cc(NC(=O)[C@@H]3CC3(F)F)ccc2F)N=C1N` [Example 10, (S)-2,2-difluoro-cyclopropanecarboxylic acid [3-((S)-2-amino-1,4,5,5-tetramethyl-6-oxo-1,4,5,6-tetrahydro-pyrimidin-4-yl)-4-fluoro-phenyl]-amide] was tested. Which IC50 did it give?
Its IC50 is 2 nM.

`CC[C@H]1C(=O)N(C)C(N)=N[C@]1(C)c1cccc(NC(=O)C2(C(F)(F)F)CC2)c1` [Example 11, 1-Trifluoromethyl-cyclopropanecarboxylic acid [3-((4S,5R)-2-amino-5-ethyl-1,4-dimethyl-6-oxo-1,4,5,6-tetrahydro-pyrimidin-4-yl)-phenyl]-amide] was tested. Which IC50 did it give?
The IC50 was 14 nM.

With `CN1C(=O)C[C@@](C)(c2cccc(NC(=O)C3(C(F)(F)F)CC3)c2)N=C1N` [Example 12, 1-Trifluoromethyl-cyclopropanecarboxylic acid [3-((S)-2-amino-1,4-dimethyl-6-oxo-1,4,5,6-tetrahydro-pyrimidin-4-yl)-phenyl]-amide] as the compound, how does the IC50 read?
Its IC50 is 23 nM.

Which IC50 does the source give for `C[C@@]1(c2cccc(NC(=O)C3(C(F)(F)F)CC3)c2)CC(=O)N(CC2CC2)C(N)=N1` [Example 13, 1-Trifluoromethyl-cyclopropanecarboxylic acid [3-((S)-2-amino-1-c-cyclopropylmethyl-4-methyl-6-oxo-1,4,5,6-tetrahydro-pyrimidin-4-yl)-phenyl]-amide] here?
Its IC50 is 190 nM.

With `CCC[C@@]1(c2cccc(NC(=O)C3(C(F)(F)F)CC3)c2)CC(=O)N(C)C(N)=N1` [Example 14, 1-Trifluoromethyl-cyclopropanecarboxylic acid [3-((S)-2-amino-1-methyl-6-oxo-4-propyl-1,4,5,6-tetrahydro-pyrimidin-4-yl)-phenyl]-amide] as the compound, how does the IC50 read?
Its IC50 is 120 nM.

How did the IC50 turn out when `CN1C(=O)C[C@]2(CCc3ccc(NC(=O)C4(C(F)(F)F)CC4)cc32)N=C1N` [Example 15, (S)—N-(2′-Amino-1′-methyl-6′-oxo-2,3,5′,6′-tetrahydro-1′H-spiro[indene-1,4′-pyrimidine]-6-yl)-1-(trifluoromethyl)cyclopropanecarboxamide] was run?
Its IC50 is 7 nM.

Which IC50 does the source give for `CN1C(=O)C(C)(C)[C@@](C)(c2cc(NC(=O)C(C)(C)F)ccc2F)N=C1N` [Example 16, (S)—N-(3-(2-Amino-1,4,5,5-tetramethyl-6-oxo-1,4,5,6-tetrahydropyrimidin-4-yl)-4-fluorophenyl)-2-fluoro-2-methylpropanamide] here?
Its IC50 is 9 nM.

`CN1C(=O)C(C)(C)[C@@](C)(c2cc(NC(=O)C3CC3)ccc2F)N=C1N` [Example 17, (S)—N-(3-(2-Amino-1,4,5,5-tetramethyl-6-oxo-1,4,5,6-tetrahydropyrimidin-4-yl)-4-fluorophenyl)cyclopropanecarboxamide] was tested. Which IC50 did it give?
The IC50 was 360 nM.

Which IC50 does the source give for `CN1C(=O)C(C)(C)[C@@](C)(c2cc(NC(=O)C3(C)CC3)ccc2F)N=C1N` [Example 18, (S)—N-(3-(2-Amino-1,4,5,5-tetramethyl-6-oxo-1,4,5,6-tetrahydropyrimidin-4-yl)-4-fluorophenyl)-1-methylcyclopropanecarboxamide] here?
The IC50 was 23 nM.

With `CN1C(=O)C(C)(C)[C@@](C)(c2cc(NC(=O)C3CC3(C)C)ccc2F)N=C1N` (stereo partly drawn) [Example 19, N-(3-((S)-2-Amino-1,4,5,5-tetramethyl-6-oxo-1,4,5,6-tetrahydropyrimidin-4-yl)-4-fluorophenyl)-2,2-dimethylcyclopropanecarboxamide] as the compound, how does the IC50 read?
The IC50 was 74 nM.

How did the IC50 turn out when `COC(F)(C(=O)Nc1ccc(F)c([C@@]2(C)N=C(N)N(C)C(=O)C2(C)C)c1)C(F)(F)F` (stereo partly drawn) [Example 20, N-(3-((S)-2-Amino-1,4,5,5-tetramethyl-6-oxo-1,4,5,6-tetrahydropyrimidin-4-yl)-4-fluorophenyl)-2,3,3,3-tetrafluoro-2-methoxypropanamide] was run?
Its IC50 is 66 nM.

With `CN1C(=O)C(C)(C)[C@@](C)(c2cc(NC3CCCC3)ccc2F)N=C1N` [Example 21, (S)-2-Amino-6-(5-(cyclopentylamino)-2-fluorophenyl)-3,5,5,6-tetramethyl-5,6-dihydropyrimidin-4(3H)-one] as the compound, how does the IC50 read?
The IC50 was 14 nM.

With `CN1C(=O)C(C)(C)[C@@](C)(c2cc(NC3CCOC3)ccc2F)N=C1N` (stereo partly drawn) [Example 22, (S)-2-Amino-6-[2-fluoro-5-(tetrahydro-furan-3-ylamino)-phenyl]-3,5,5,6-tetramethyl-5,6-dihydro-3H-pyrimidin-4-one] as the compound, how does the IC50 read?
The IC50 was 5 nM.

`CCOC(=O)N1CCC(Nc2ccc(F)c([C@@]3(C)N=C(N)N(C)C(=O)C3(C)C)c2)C1` (stereo partly drawn) [Example 23, 3-[3-((S)-2-Amino-1,4,5,5-tetramethyl-6-oxo-1,4,5,6-tetrahydro-pyrimidin-4-yl)-4-fluoro-phenylamino]-pyrrolidine-1-carboxylic acid ethyl ester] was tested. Which IC50 did it give?
The IC50 was 7 nM.

Which IC50 does the source give for `CC1CCC(Nc2ccc(F)c([C@@]3(C)N=C(N)N(C)C(=O)C3(C)C)c2)C1` (stereo partly drawn) [Example 24, (S)-2-Amino-6-[2-fluoro-5-(3-methyl-cyclopentylamino)-phenyl]-3,5,5,6-tetramethyl-5,6-dihydro-3H-pyrimidin-4-one] here?
The IC50 was 39 nM.

`CC1CCCC1Nc1ccc(F)c([C@@]2(C)N=C(N)N(C)C(=O)C2(C)C)c1` (stereo partly drawn) [Example 25, (S)-2-Amino-6-[2-fluoro-5-(2-methyl-cyclopentylamino)-phenyl]-3,5,5,6-tetramethyl-5,6-dihydro-3H-pyrimidin-4-one] was tested. Which IC50 did it give?
The IC50 was 4 nM.

`CN1C(=O)C(C)(C)[C@@](C)(c2cc(NC(=O)CC3CCCC3)ccc2F)N=C1N` [Example 26, (S)—N-(3-(2-amino-1,4,5,5-tetramethyl-6-oxo-1,4,5,6-tetrahydropyrimidin-4-yl)-4-fluorophenyl)-2-cyclopentylacetamide] was tested. Which IC50 did it give?
The IC50 was 274 nM.

For `CN1C(=O)C(C)(C)[C@@](C)(c2cc(NC(=O)CC3CCC3)ccc2F)N=C1N` [Example 27, (S)—N-(3-(2-amino-1,4,5,5-tetramethyl-6-oxo-1,4,5,6-tetrahydropyrimidin-4-yl)-4-fluorophenyl)-2-cyclobutylacetamide], which IC50 is on record?
Its IC50 is 157 nM.

`CN1C(=O)C(C)(C)[C@@](C)(c2cc(NC(=O)CC3CC3)ccc2F)N=C1N` [Example 28, (S)—N-(3-(2-amino-1,4,5,5-tetramethyl-6-oxo-1,4,5,6-tetrahydropyrimidin-4-yl)-4-fluorophenyl)-2-cyclopropylacetamide] was tested. Which IC50 did it give?
The IC50 was 43 nM.
